Assay results published in patent US20120009593A1, “ANALYSIS METHOD FOR THE IN VITRO DIAGNOSIS OF BENIGN PROSTATIC HYPERPLASIA (BPH) IN DOGS BY ASSAYING CANINE PROSTATE SPECIFIC ESTERASE, AND BPH TREATMENT FOLLOW UP” (VIRBAC SA, priority 2009, published 2012).
Values joined by “and” are separate entries in the source; they are usually repeats but may differ in a detail not shown here. Identical values can stand only once.

Assays:
dogs with signs of BPH [1] = test: Anti-androgen treatment follow up: prostate size by digital rectal examination; assay type: in vivo, dog; settings: all five treated dogs, after treatment
dogs with signs of BPH [2] = test: Anti-androgen treatment follow up: serum CPSE level in treated dogs; assay type: in vivo, dog
Experimental: The CPSE concentration in the serum or plasma samples was determined by sandwich ELISA. 96-well microplates (Stripwell Costar/Corning, N.Y., USA) were coated overnight at +4° C. with monoclonal or polyclonal anti-CPSE antibodies, at a concentration of 5 μg/ml in a carbonate buffer at pH 9.6. After 4 washes, the wells were incubated for 1 hour at 37° C. with a saline phosphate buffer at pH 7.2, while adding 5% bovine serum albumin. Finally, the plates were incubated for 30 minutes at room temperature with a saline phosphate buffer at pH 7.2 to which 10% sucrose was added. Once emptied, the microplates were dried overnight under vacuum, and then packaged in the presence of a desiccant until use.
The assay of samples is carried out by dispensing […] of serum or plasma (heparinized plasma or EDTA plasma) into each of the wells. After 1 hour at 37° C., the microplate is washed. 100 μl of monoclonal or polyclonal anti-CPSE antibodies conjugated to peroxidase are dispensed. The wells are incubated for 1 hr at 37° C. and washed again. The antibodies remaining attached to the walls are developed by adding 3,3′,5,5′tetramethyl benzidine. After completion of the reaction, the absorbance is read at 450 nm.
Five dogs with signs of BPH (see inclusion criteria above) were treated with osaterone acetate (YPOZANE®, Virbac). This molecule is an anti-androgen, which acts on the prostatic parenchyma. The CPSE level was measured at days D15 and D0. The dogs were treated as recommended and were given from 0.25-0.5 mg/kg/day of osaterone acetate, for a period of 7 days. Serum was collected prior to any treatment and after 15 days. The CPSE level was measured in the different samples.
Dogs with signs of PBH were treated with osaterone acetate, as recommended by the manufacturer. The serum CPSE level in these dogs was measured before the treatment and after 15 days.

`CC(=O)O[C@]1(C(C)=O)CC[C@H]2[C@@H]3C=C(Cl)C4=CC(=O)OC[C@]4(C)[C@H]3CC[C@@]21C` [osaterone acetate] was tested, and the “size of the prostate by digital rectal examination” value (dogs with signs of BPH [1]) was “return to a normal size of the prostate”, the “change in serum CPSE level between before treatment and treatment completed” value (dogs with signs of BPH [2]; five dogs with signs of BPH, D0 vs D15) was “decrease in the serum CPSE level” and the “CPSE (ng/ml), D + 15” value (dogs with signs of BPH [2]; serum, individual Dogs 1-5 with signs of BPH, D+15, 0.25-0.5 mg/kg/day for 7 days) was 15 ng/mL and 21 ng/mL and 40 ng/mL and 10 ng/mL and 36 ng/mL. For the same compound, the “CPSE (ng/ml), Visit 2” value (dogs with signs of BPH [2]; serum, individual dogs C1-C5 with signs of BPH, 15 days after first sampling, 0.25-0.5 mg/kg/day for 7 days) was 15 ng/mL and 21 ng/mL and 40 ng/mL and 10 ng/mL and 36 ng/mL.
